Structures are written as SMILES. Residues, ends and D or L forms follow the SMILES beside them. *: point of attachment. Cbz = O=C(OCc1ccccc1)*

Holding throughout (type): cell-based, Saccharomyces cerevisiae
Test [1] deals with proteasome of yeast cells (CYS344 strain, mAG-p21[6KR]^WAF1/Cip1 fusion protein). The test can be described thus: Flow cytometric quantification (FACS) of fluorescence of mAG-p21[6KR]WAF1/Cip1 fusion protein in CYS344 yeast cells. The conditions noted are these: 50 μM MG132 added with 2% glucose after 120 minutes galactose, time D1h, D2h, D3h. Here is the method: (§1) The yeast cells were cultured in the presence or in the absence of the MG132 proteasome inhibitor.
(§2) All the cells were cultured in minimal medium in the presence of galactose as a carbon source for 120 minutes.
(§3) At the end of these 120 minutes, 2% glucose was added to the culture, in the presence and in the absence of 50 μM of a known proteasome inhibitor, the MG132.
(§4) The fluorescence emitted by the cells was quantified using a FacsCalibur flow cytometer (Beckton-Dickinson), immediately before adding galactose (I0), 1 and 2 hour(s) following the addition of galactose (I1 and I2) and 1, 2 and 3 hours (D1, D2 and D3) following the addition of glucose. The presence of Mg132 in the culture is indicated by “+MG132”. The fluorescence is expressed in arbitrary units.

Test [2] shares this test system. The test can be described thus: Degradation of mAG-p21[6KR]WAF1/Cip1 fusion protein in CYS344 yeast cells, epifluorescence microscopy. The conditions noted are these: 50 μM MG132 added with 2% glucose after 120 minutes galactose, 0, 60, 120, 180 minutes after glucose. Here is the method: The yeast cells of the CYS344 strain were cultured in minimal medium in the presence of galactose as a carbon source for 120 minutes.
as §3
The cells were observed using an epifluorescence microscope (fluorescent microscope Nikon Eclipse fitted with an Omega XF116 filter). All the pictures were saved on a Hamamastu® camera using similar settings, then analyzed with the LUCIA G software, immediately before adding glucose (0 minute), and 60, 120 and 180 minutes (60, 120, 180 minutes) following the addition of glucose. The presence of MG132 in the culture is indicated by MG132″.

Test [3] deals with proteasome of the recombinant yeast cells (CYS343 strain, mAG-p21^WAF1/Cip1 fusion protein). The test can be described thus: Degradation of mAG-p21WAF1/Cip1 fusion protein in CYS343 yeast cells, immunoblotting (Western blotting). The conditions noted are these: 50 μM MG132 added with 2% glucose after 120 minutes galactose, 30, 60, 120 and 150 minutes after glucose. The protocol: (§5) The degradation of the fusion proteins comprising p21^WAF1/Cip1 or p21[6KR]^WAF1/Cip1 fused with mAG by the proteasome of the recombinant yeast cells of CYS 344 and CYS 343 strains was controlled by an immunoblotting technique, in the presence or in the absence of a proteasome inhibitor, the Mg132 compound.
(§6) All the yeast strains used were cultured and analyzed in a similar way.
(§7) The cells were cultured in minimal medium in the presence of galactose as a carbon source for 120 minutes.
(§8) At the end of these 120 minutes, 2% glucose was added to the culture, in the presence and in the absence of 50 μM of a known proteasome inhibitor, the Mg 132.
FIG. 3B illustrates the results obtained with the CYS343 recombinant yeast strain. Total proteins were prepared before adding galactose (0), 60 and 120 minutes following the addition of galactose (+galactose 0, 60, 120) and 30, 60, 120 and 150 minutes (+glucose, 30, 60, 120, 150) following the addition of glucose.
(§9) These proteins were analyzed by immunoblotting technique (“Western blotting”) using an antibody that recognized the p21^WAF1/Cip1 part of the fusion proteins (noted “mAG-p21^WAF1/Cip1” or “mAG-p21[6KR]^WAF1/Cip1” on FIG. 3).
(§10) The presence of MG132 in the culture is indicated by “+MG132” on FIG. 3. […]

Test [4] has as its system proteasome of the recombinant yeast cells (CYS344 strain, mAG-p21[6KR]^WAF1/Cip1 fusion protein). The test can be described thus: Degradation of mAG-p21[6KR]WAF1/Cip1 fusion protein in CYS344 yeast cells, immunoblotting (Western blotting). To be noted: 50 μM MG132 added with 2% glucose after 120 minutes galactose, 30, 60 and 120 minutes after glucose. The protocol: as §5, §6, §7, §8
The results are given on FIG. 3 (FIG. 3A and FIG. 3B). FIG. 3A illustrates the results obtained with the CYS344 recombinant yeast strain.
Total proteins were prepared before adding galactose (0), 60 and 120 minutes following the addition of galactose (+galactose 0, 60, 120) and 30, 60 and 120 minutes (+glucose, 30, 60, 120) following the addition of glucose.
as §9, §10

The test system of test [5] is proteasome of yeast cells (CYS343 strain, mAG-p21^WAF1/Cip1 fusion protein). The test can be described thus: Flow cytometric quantification (FACS) of fluorescence of mAG-p21WAF1/Cip1 fusion protein in CYS343 yeast cells. The conditions noted are these: 50 μM MG132 added with 2% glucose after 120 minutes galactose, time D1h, D2h, D3h. Here is the method:
as §1, §2, §3, §4

Turning to `CC(C)C[C@@H](C=O)NC(=O)[C@H](CC(C)C)NC(=O)[C@H](CC(C)C)NC(=O)OCc1ccccc1` [MG132] (Cbz-Leu-Leu-Leu-aldehyde), the “degradation of the mAG-p21[6KR]WAF1/Cip1 fusion protein (fluorescence, flow cytometry)” value in test [1] was “strongly inhibited”. In test [2], the “fluorescence signal intensity of mAG-p21[6KR]WAF1/Cip1 fusion protein versus culture time (epifluorescence microscopy)” value was “fluorescence signal intensity versus culture time was maintained”. Further, the “degradation of the mAG-p21[wt]WAF1/Cip1 fusion protein (Western blotting)” value in test [3] is listed as “inhibit the degradation of the fusion protein”. Further, the “degradation of the mAG-p21[6KR]WAF1/Cip1 fusion protein (Western blotting)” value in test [4] was “inhibit the degradation of the fusion protein”. The “degradation of the mAG-p21WAF1/Cip1 fusion protein (fluorescence, flow cytometry)” value in test [5] is reported as “strongly inhibited”.

The values above are taken from US20100216160A1, “METHOD FOR THE SCREENING […] ACTIVITY-MODULATING AGENTS AND MEANS FOR CARRYIING OUT SAID METHOD” (CYTOMICS SYSTEMS, priority 2005, published 2010).
